This experiment concerns the target Adenylate kinase isoenzyme 1 (Homo sapiens) (UniProt P00568). Kind of experiment: AK1 binders by thermal shift, biophysical, DSF, SYPRO orange (AID 379). Conditions: purified AK1, DSF SYPRO orange thermal shift; at 5 µM; protein 1 µM; buffer 10 mM HEPES; hits give high values.

Consider one compound from PubChem BioAssay AID379.

Chain of Adenylate kinase isoenzyme 1 (Homo sapiens) (P00568 whole entry, looked up): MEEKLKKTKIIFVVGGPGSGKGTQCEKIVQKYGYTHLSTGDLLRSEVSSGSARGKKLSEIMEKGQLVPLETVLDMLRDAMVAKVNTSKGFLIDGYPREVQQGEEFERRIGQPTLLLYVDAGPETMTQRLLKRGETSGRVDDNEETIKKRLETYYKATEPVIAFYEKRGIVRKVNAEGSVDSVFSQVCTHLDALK

As for `Nc1ncnc2c1ncn2[C@@H]1O[C@H](COP(=O)(O)OP(=O)(O)OP(=O)(O)OP(=O)(O)OP(=O)(O)OC[C@H]2O[C@@H](n3cnc4c(N)ncnc43)[C@H](O)[C@@H]2O)[C@@H](O)[C@H]1O`, the Tm shift is 15.4 Celsius.
